This is an account of results in patent publication US12577235B2, “Crystalline form of CXCR2 antagonist and application thereof” (Shenzhen Optimum Biological Technology Co., Ltd, priority 2019, dated 2026).

Data set [1] can be described thus: Stability assay of solid crystalline form A at high temperature, high humidity, high temperature and high humidity, and illumination. The settings on record: for Stability and druggability (conclusion in words): solid state stress conditions. The class given is physicochemical. The procedure: The samples were placed in conditions of high temperature (60° C.), high humidity (92.5% humidity, 25° C.), high temperature and high humidity (60° C./75% humidity), and under illumination (including in the dark as control) for stability assay. For samples in a 60° C./75% thermostatic incubator and a 92.5% RH desiccator, the vials were sealed using films. On the films 5 small holes were provided to ensure that the sample was in sufficient contact with atmospheric air. For samples at 60° C., under illumination and in the dark, the vials were tightly capped (for the sample in the dark the vial was wrapped with tin foil). The samples were tested on day 10 for high humidity (92.5% humidity) condition, on days 5 and 10 for high temperature (60° C.) condition, on days 10 and 30 for high temperature and high humidity (60° C./75% humidity) condition, and on day 10 for illumination condition.

Data set [2] has as its system PPE-induced SD rat COPD model. Description: Therapeutic effect on PPE-induced COPD model. The class given is in vivo, SD rats. The settings on record: dose not stated (technical effects summary). From the text: • To test the therapeutic effect of the compound on PPE-induced SD rat COPD model. Materials: • Animals: SD rats (male, 160-180 g, 6 weeks age) • Test compounds: porcine pancreatic elastase (Sigma, 0.068 U/μL); Danirixin, compound 1. • Grouping: 1) vehicle group • 2) COPD model group (porcine pancreatic elastase modeling group/solvent group) • 3) PPE+Danirixin (30 mpk) • 4) PPE+compound 1 (10 mpk) • 5) PPE+compound 1 (30 mpk) Procedures: • 1. Modeling: PPE was given retrolingually. • 2. Administration: an aqueous solution of 1% DMSO/20% PEG400/79% (HP-b-CD) was used as the vehicle, and the drugs were administrated intragastrically everyday at a volume of 2 mL/rat for 4 weeks. • 3. Endpoint: On day 29, pulmonary function test, sample collection, and inflammatory cell count in bronchoalveolar lavage fluid.
Bronchoalveolar lavage: The rats were sacrificed, and dissected at the neck. Trachea intubation was performed. 1 mL of cold […] at 4° C. was infused for 3 lavages, and the lavage fluids were combined. The combined lavage fluids were centrifuged at 1200 rpm/min for 5 min, and the supernatant was discarded. The cell suspension was collected;

Setting [3] is: high humidity (92.5% humidity, 25° C.), day 0.
[4] abbreviates: high humidity (92.5% humidity, 25° C.), day 10.
The mark [5] stands for this setting: high temperature (60° C.), day 0.
Where [6] appears, read: high temperature (60° C.), day 5.
Setting [7] is: high temperature (60° C.), day 10.
Setting [8] is: in the dark for 10 days (control).

Consider `O=C(Nc1ccc(Cl)c(S(=O)(=O)[C@H]2CCCNC2)c1O)N[C@@H]1CCCc2cc(C(F)(F)F)oc21` [crystalline form A], for which the Appearance result is reported as “White powder” in data set [1] (60° C./75% humidity, day 0); “White powder” in data set [1] (60° C./75% humidity, day 10); “White powder” in data set [1] (60° C./75% humidity, day 30); “White powder” in data set [1] (setting [3]); “White powder” in data set [1] (setting [4]); “White powder” in data set [1] (setting [5]). For the same compound, the Appearance result is “White powder” in data set [1] (setting [6]), “White powder” in data set [1] (setting [7]), “White” in data set [1] (setting [8]) and “White” in data set [1] (under illumination for 10 days). The Crystalline form result in data set [1] (60° C./75% humidity, day 0) was “Crystalline”; in data set [1] (60° C./75% humidity, day 10), “Crystalline”; in data set [1] (60° C./75% humidity, day 30), “Crystalline”; in data set [1] (setting [3]) it was “Crystalline”; in data set [1] (setting [4]), “Crystalline”; in data set [1] (setting [5]) it was “Crystalline”. The Crystalline form result in data set [1] (setting [6]), in data set [1] (setting [7]), in data set [1] (setting [8]) and in data set [1] (under illumination for 10 days) was “Crystalline” throughout. Further, the “Stability and druggability (conclusion in words)” value in data set [1] (listed as crystalline form A of compound 1) was “good stability and druggability”; in data set [1] (listed as crystalline form A of the compound 1), “good stability and desirable druggability”. Besides, in data set [2], the Number of neutrophils entry is on record as “significantly reduce the number of neutrophils”. For the same compound, the Pulmonary function entry in data set [2] is given as “significantly improve the pulmonary function”.
